Literature values, collected in publication PMC7377474, “Preclinical characterization of CPL302-253, a selective inhibitor of PI3Kδ, as the candidate for the inhalatory treatment and prevention of Asthma” (PLoS ONE, 2020).

Target: T1, hERG (Homo sapiens, UniProt Q12809)
T1 construct: purchased DiscoverX (Eurofins) SafetyScan44
Details: available preclinical data; cited from earlier work

T1 sequence (Q12809 whole entry): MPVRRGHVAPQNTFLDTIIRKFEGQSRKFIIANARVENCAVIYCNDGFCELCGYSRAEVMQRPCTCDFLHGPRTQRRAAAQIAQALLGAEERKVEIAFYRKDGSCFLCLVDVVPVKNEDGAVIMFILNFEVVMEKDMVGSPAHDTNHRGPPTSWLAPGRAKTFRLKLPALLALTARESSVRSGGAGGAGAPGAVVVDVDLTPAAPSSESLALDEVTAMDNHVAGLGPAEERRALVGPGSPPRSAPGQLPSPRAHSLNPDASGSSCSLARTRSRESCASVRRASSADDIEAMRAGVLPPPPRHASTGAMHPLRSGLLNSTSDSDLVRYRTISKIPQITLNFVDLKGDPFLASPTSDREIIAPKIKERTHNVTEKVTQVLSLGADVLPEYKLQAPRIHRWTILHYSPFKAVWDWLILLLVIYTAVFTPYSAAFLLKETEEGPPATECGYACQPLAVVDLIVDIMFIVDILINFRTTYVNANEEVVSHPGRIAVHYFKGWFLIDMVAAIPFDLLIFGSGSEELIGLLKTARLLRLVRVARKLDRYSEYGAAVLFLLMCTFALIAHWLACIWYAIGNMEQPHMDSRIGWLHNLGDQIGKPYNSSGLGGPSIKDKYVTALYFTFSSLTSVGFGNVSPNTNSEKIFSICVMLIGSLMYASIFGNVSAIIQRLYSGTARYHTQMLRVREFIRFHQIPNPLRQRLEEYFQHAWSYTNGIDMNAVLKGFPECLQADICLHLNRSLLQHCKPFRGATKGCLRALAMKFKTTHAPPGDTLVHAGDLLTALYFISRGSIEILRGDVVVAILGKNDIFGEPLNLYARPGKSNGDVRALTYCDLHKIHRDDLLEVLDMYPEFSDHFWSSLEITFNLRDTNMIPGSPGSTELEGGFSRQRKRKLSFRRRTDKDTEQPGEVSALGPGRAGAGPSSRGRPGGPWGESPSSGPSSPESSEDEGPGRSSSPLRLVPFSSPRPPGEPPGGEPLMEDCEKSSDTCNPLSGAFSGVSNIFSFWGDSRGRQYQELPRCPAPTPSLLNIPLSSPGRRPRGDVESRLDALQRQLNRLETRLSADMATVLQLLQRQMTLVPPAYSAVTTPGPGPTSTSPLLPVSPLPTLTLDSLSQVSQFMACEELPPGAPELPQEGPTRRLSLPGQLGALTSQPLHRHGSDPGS

For CC(C)N1CCN(Cc2cnc(-c3cc(-c4cccc5[nH]ccc45)cc4[nH]ncc34)o2)CC1 [Nemiralisib], the “activity towards hERG” value is listed as “has activity towards hERG”.
